Results published in US9408393B2, “Bismuth-thiols as antiseptics for agricultural, industrial and other uses” (Microbion Corporation, priority 2010, dated 2016).

Legend:
S. aureus strains = test: In vitro inhibition from PMMA cement bead vehicle; assay type: cell-based, Staphylococcus aureus; conditions: with and without Tobramicin and Vancomycin
[1] = test system: Gram-negative pathogenic bacteria; test: Checkerboard broth microdilution MIC and FICI; assay type: cell-based; conditions: for MIC (μg/mL) Alone: compound alone; for FICI, Fractional Inhibitory Concentration Index: in combination with Cefotaxime
Method: The effects of combinations of microparticulate Bis-EDT and four Bis-EDT analogs prepared as described above, and other agents against representative strains of several Gram-negative pathogenic bacteria were tested. A modification of a common laboratory method was used to determine synergism (FICI≦0.5), enhancement (0.5<FICI≦1.0), antagonism (FICI>4.0) and indifference (1.0<FICI≦4.0) used fractional inhibitory concentrations (FICs) and FIC indices (FICI) (Eliopoulos G and R Moellering. 1991. Antimicrobial combinations. In Antibiotics in Laboratory Medicine, Third Edition, edited by V Lorian. Williams and Wilkins, Baltimore, Md., pp. 432-492; Odds, 2003 J. Antimicrob. Chemother. 52(1):1). The checkerboard technique was used to determine FIC indices and was employed in this study.
Stock solutions of all test articles were prepared at 40× the final target concentration in the appropriate solvent. […] The final drug concentrations in the FIC assay plates were set to bracket the MIC value of each agent for each test organism, unless the strain was totally resistant to the test agent. […] The test organisms were originally received from clinical sources, or from the American Type Culture Collection. Upon receipt, the isolates were streaked onto Tryptic Soy Agar II (TSA). Colonies were harvested from these plates and a cell suspension was prepared in an appropriate broth growth medium containing cryoprotectant. Aliquots were then frozen at −80° C. The frozen seeds of the organisms to be tested in a given assay were thawed, streaked for isolation onto TSA plates, and incubated at 35° C. All organisms were tested in Mueller Hinton II Broth (Becton Dickinson, Lot No. 9044411). The broth was prepared at 1.05× normal weight/volume to offset the 5% volume of the drugs in the final test plates.
Minimal Inhibitory Concentration (MIC) values were previously determined using the broth microdilution method for aerobic bacteria (Clinical and Laboratory Standards Institute (CLSI). Methods for Dilution Antimicrobial Susceptibility Tests for Bacteria That Grow Aerobically; Approved Standard—Eighth Edition. CLSI document M07-A8 [ISBN 1-56238-689-1]. Clinical and Laboratory Standards Institute, 940 West Valley Road, Suite 1400, Wayne, Pa. 19087-1898 USA, 2009.).
FIC values were determined using a broth microdilution method previously described (Sweeney et al., 2003 Antimicrob. Agents Chemother. 47(6):1902-1906). To prepare the test plates, automated liquid handlers (Multidrop 384, Labsystems, Helsinki, Finland; Biomek 2000 and Multimek 96, Beckman Coulter, Fullerton Calif.) were used to conduct serial dilutions and liquid transfers.
The appropriate wells of standard 96-well microdilution plates (Falcon 3918) were filled with 150 μL of the appropriate solvent in columns 2-12 using the Multidrop 384. Three hundred microliters of each secondary test drug was added to each well in Column 1 of the plates. These plates were used to prepare the drug “mother plates” which provided the serial drug dilutions for the drug combination plates. The Biomek 2000 was used to transfer 150 μL of each secondary drug solution (40×) from the wells in Column 1 of the mother plate and to make eleven 2-fold serial dilutions. Mother plates of Bis-EDT (and analogs) were serial diluted top to bottom by hand, using a multichannel pipette. Two mother plates, one for each secondary drug and one for Bis-EDT (or analogs), were combined to form a “checkerboard” pattern by transfer of equal volumes (using a multi-channel pipette) to the drug combination plate. Row H and Column 12 each contained serial dilutions of one of the agents alone for determination of the MIC.
The “daughter plates” were loaded with 180 μL of test medium using the Multidrop 384. Then, the Multimek 96 was used to transfer 10 μL of drug solution from each well of the drug combination mother plate to each corresponding well of the daughter plate in a single step.

S. aureus = test: Contaminated open fracture, rat femur critical defect model; assay type: in vivo; conditions: BT gel 5 mg/ml, 1 ml in defect, with Cefazolin 5 mgKg^−1 s.c. twice daily 3 days, day 14
From the text: Standard errors of the mean are shown as error bars. Animals euthanized early are not excluded from the analysis, however samples from one animal in group 2 have been excluded due to gross contamination.
The aim of this study was to determine whether BTs will reduce infection in a contaminated open fracture model either on their own or with antibiotics. The contaminated rat femur critical defect model is a well-accepted model and was used for the experiments described in this Example. This model offers a standardized model for comparing various possible treatments and their effects on reducing infection and/or improving healing.
Three formulations of microparticulate BTs were produced in a clinically useful hydrogel gel form as described herein.
Two treatment arms were used: in the first arm, BT was used singularly; in the second arm BT was used in conjunction with a systemic antibiotic (ABx).
Six hours after inoculation with S. aureus, the wound was debrided, irrigated with saline and 1 ml of BT gel inserted within the defect.
Six hours after inoculation with S. aureus, the wound was debrided, irrigated with saline and 1 ml of BT gel added inserted within the defect. The antibiotic used was Cefazolin at a dose equivalent to 5 mgKg^−1 delivered via sub-cutaneous injection twice daily for a total of 3-days following the injury. The first dose was administered immediately prior to debridement.
Six hours after inoculation with S. aureus, the wound was debrided and irrigated with saline. The control animals were also treated with Cefazolin as per the regime described above.
The procedure for the in vivo rat injury model was performed as described by Chen et al. (2002 J. Orthop. Res. 20:142; 2005 J. Orthop. Res. 23:816; 2006 J. Bone Joint Surg. Am. 88:1510; 2007 J. Orthop. Trauma 21:693). The rats were anesthetized and prepped for surgery. The anterolateral aspect of the femoral shaft was exposed through a 3-cm incision. The periosteum and attached muscle was stripped from the bone. A polyacetyl plate (27×4×4 mm) was placed on the anterolateral surface of the femur. The plates were predrilled to accept 0.9-mm diameter threaded Kirschner wires. The bases of these plates were formed to fit the contour of the femoral shaft. Pilot holes were drilled through both cortices of the femur using the plate as a template and threaded Kirschner wire was inserted through the plate and femur. The notches that were 6 mm apart on the plate served as a guide for bone removal. A small oscillating saw was used to create the defect while the tissue was cooled by continuous irrigation in an effort to prevent thermal damage.
Several groups of 10 animals each were inoculated with 1×10^5 CFU of S. aureus and treated with BT alone or in combination with antibiotics 6 hours post-inoculation as described above. The groups were as follows: Bis-EDT gel; MB-11 gel; MB-8-2 gel; Bis-EDT gel & Abx; MB-11 gel & Abx; MB-8-2 gel & Abx; Control (Abx alone).
Animals were euthanized 14 days after surgery and bone and hardware sent for microbiological analysis, the results of which are shown in FIG. 7.

P. aeruginosa = test: Checkerboard broth microdilution MIC and FICI; assay type: cell-based, Pseudomonas aeruginosa; conditions: for MIC (μg/mL) Alone: compound alone
Mycobacterium smegmatis = test: Single-point BisEDT-antibiotic combination FICI; assay type: cell-based; conditions: Msmeg 817
[2] = test system: Staphylococcus aureus (SA, MRSA); test: Single-point BisEDT-antibiotic combination FICI; assay type: cell-based; conditions: MRSA 773
Escherichia coli = test: Single-point BisEDT-antibiotic combination FICI; assay type: cell-based; conditions: EC 2232
Burkholderia cepacia = test: Single-point BisEDT-antibiotic combination FICI; assay type: cell-based; conditions: Bcep 1756
[3] = test system: Streptococcus pneumoniae (SP, PRSP); test: Single-point BisEDT-antibiotic combination FICI; conditions: PRSP 5348
Klebsiella pneumoniae = test: Single-point BisEDT-antibiotic combination FICI; assay type: cell-based; conditions: KP 1231
Acinetobacter baumanii = test: Single-point BisEDT-antibiotic combination FICI; assay type: cell-based; conditions: Abau 2594
Pseudomonas aeruginosa = test: Single-point BisEDT-antibiotic combination FICI; assay type: cell-based; conditions: PA 1380
Bukholderia multivorans = test: Single-point BisEDT-antibiotic combination FICI; assay type: cell-based; conditions: Bmult 5665
Enterococcus faecalis = test: Single-point BisEDT-antibiotic combination FICI; assay type: cell-based; conditions: E Fc 3121
[4] = P. aeruginosa 103, in combination with Cefepime
[5] = P. aeruginosa 103, in combination with Cefotaxime
[6] = P. aeruginosa 1381, in combination with Cefepime
[7] = P. aeruginosa 1384, in combination with Cefepime
[8] = P. aeruginosa 1474, in combination with Cefepime
[9] = P. aeruginosa 1479, in combination with Cefepime
[10] = P. aeruginosa 2566, in combination with Cefepime
[11] = P. aeruginosa 2568, in combination with Cefepime

Compound	Effect on S. aureus strains in vitro from PMMA cement beads (S. aureus strains)	MIC (μg/mL) Alone ([1]; K. pneumoniae 1346)	FICI, Fractional Inhibitory Concentration Index ([1]; K. pneumoniae 1346)	MIC (μg/mL) Alone ([1]; K. pneumoniae 1355)	FICI, Fractional Inhibitory Concentration Index ([1]; K. pneumoniae 1355)	MIC (μg/mL) Alone ([1]; K. pneumoniae 2238)	FICI, Fractional Inhibitory Concentration Index ([1]; K. pneumoniae 2238)	MIC (μg/mL) Alone ([1]; K. pneumoniae 2541)	FICI, Fractional Inhibitory Concentration Index ([1]; K. pneumoniae 2541)	MIC (μg/mL) Alone ([1]; K. pneumoniae 2546)	MIC (μg/mL) Alone ([1]; K. pneumoniae 2549)	FICI, Fractional Inhibitory Concentration Index ([1]; K. pneumoniae 2549)	S. aureus infection detected on hardware, effect on Cefazolin activity (S. aureus)	S. aureus infection of injured bone, effect on Cefazolin activity (S. aureus)	MIC (μg/mL) Alone (P. aeruginosa; P. aeruginosa 103)	FICI, Fractional Inhibitory Concentration Index (P. aeruginosa; [4])	FICI, Fractional Inhibitory Concentration Index (P. aeruginosa; [5])	MIC (μg/mL) Alone (P. aeruginosa; P. aeruginosa 1381)	FICI, Fractional Inhibitory Concentration Index (P. aeruginosa; [6])	FICI, single-point BisEDT-antibiotic combination (Mycobacterium smegmatis)	also measured
bismuth pyrithione/ethanedithiol [MB-11]	inhibitory effects	0.5 µg/mL	1.37	0.5 µg/mL	1.87	0.5 µg/mL	1.37	0.5 µg/mL	0.73	0.5 µg/mL	0.5 µg/mL	1.37	enhanced antibiotic activity	enhanced	1 µg/mL	0.12	1.12	1 µg/mL	1.12	–	FICI, Fractional Inhibitory Concentration Index ([1]; K. pneumoniae 2546): 1.37; MIC (μg/mL) Alone (P. aeruginosa; P. aeruginosa 1384): 1 µg/mL; FICI, Fractional Inhibitory Concentration Index (P. aeruginosa; [7]): 1.12; MIC (μg/mL) Alone (P. aeruginosa; P. aeruginosa 1474): 0.5 µg/mL; FICI, Fractional Inhibitory Concentration Index (P. aeruginosa; [8]): 1.12; MIC (μg/mL) Alone (P. aeruginosa; P. aeruginosa 1479): 0.5 µg/mL; FICI, Fractional Inhibitory Concentration Index (P. aeruginosa; [9]): 0.87; MIC (μg/mL) Alone (P. aeruginosa; P. aeruginosa 2566): 0.5 µg/mL; FICI, Fractional Inhibitory Concentration Index (P. aeruginosa; [10]): 0.93; MIC (μg/mL) Alone (P. aeruginosa; P. aeruginosa 2568): 0.5 µg/mL; FICI, Fractional Inhibitory Concentration Index (P. aeruginosa; [11]): 0.87
Capreomycin	–	–	–	–	–	–	–	–	–	–	–	–	–	–	–	–	–	–	–	0.75	–
bismuth pyrithione/butanedithiol [MB-8-2]	inhibitory effects	0.5 µg/mL	1.37	0.5 µg/mL	1.37	0.5 µg/mL	1.37	1 µg/mL	1.12	1 µg/mL	1 µg/mL	1.12	enhanced antibiotic activity	enhanced	2 µg/mL	1.11	1.11	2 µg/mL	1.23	–	MIC (μg/mL) Alone (P. aeruginosa; P. aeruginosa 1384): 2 µg/mL; FICI, Fractional Inhibitory Concentration Index (P. aeruginosa; [7]): 0.80; MIC (μg/mL) Alone (P. aeruginosa; P. aeruginosa 1474): 2 µg/mL; FICI, Fractional Inhibitory Concentration Index (P. aeruginosa; [8]): 1.11; MIC (μg/mL) Alone (P. aeruginosa; P. aeruginosa 1479): 2 µg/mL; FICI, Fractional Inhibitory Concentration Index (P. aeruginosa; [9]): 1.23; MIC (μg/mL) Alone (P. aeruginosa; P. aeruginosa 2566): 2 µg/mL; FICI, Fractional Inhibitory Concentration Index (P. aeruginosa; [10]): 1.23; MIC (μg/mL) Alone (P. aeruginosa; P. aeruginosa 2568): 2 µg/mL; FICI, Fractional Inhibitory Concentration Index (P. aeruginosa; [11]): 0.98
[H]/N=C(/N)N[C@H]1[C@H](O)[C@@H](O)[C@H](O[C@@H]2O[C@@H](C)[C@](O)(C=O)[C@H]2O[C@@H]2O[C@@H](CO)[C@H](O)[C@@H](O)[C@@H]2NC)[C@@H](N/C(N)=N\[H])[C@@H]1O [Streptomycin]	–	–	–	–	–	–	–	–	–	–	–	–	–	–	–	–	–	–	–	1.13	FICI, single-point BisEDT-antibiotic combination [2]: 0.95; FICI, single-point BisEDT-antibiotic combination (Escherichia coli): 1.29; FICI, single-point BisEDT-antibiotic combination (Burkholderia cepacia): 1.37; FICI, single-point BisEDT-antibiotic combination [3]: 0.66; FICI, single-point BisEDT-antibiotic combination (Klebsiella pneumoniae): 1.04; FICI, single-point BisEDT-antibiotic combination (Acinetobacter baumanii): 2.62; FICI, single-point BisEDT-antibiotic combination (Pseudomonas aeruginosa): 1.98; FICI, single-point BisEDT-antibiotic combination (Bukholderia multivorans): 1.12; FICI, single-point BisEDT-antibiotic combination (Enterococcus faecalis): 0.61
NNC(=O)c1ccncc1 [Isoniazid]	–	–	–	–	–	–	–	–	–	–	–	–	–	–	–	–	–	–	–	0.88	–
